Experimental findings from the OPERA property sets (Mansouri et al. 2018) are described below.

Take `CCN(CC)C(=O)COC(=O)c1ccccc1O`: the logP (commonly a log measure of how a compound divides between an organic and an aqueous phase) is 1.99.
Under `CC1CC2C3CCC4=CC(=O)C=CC4(C)C3(F)C(O)CC2(C)C1(O)C(=O)NCc1ccccc1` (configuration not stated) stands 3.28; under `CCCCC(NC(Cc1ccccc1)C(=O)N1CCC(OCOC)CC1)C(=O)NC(CC1CCCCC1)C(O)CC(C(=O)NCCCNCCO)C(C)C` (configuration not stated), 3.5.
To `CC(C)(C)c1ccc2c(c1)OCCOCCOCCOCCOCCO2` belongs 1.71; to `Cc1nc([N+](=O)[O-])c(Br)n1C`, 0.44; to `CC1=C(N2CC2)C(=O)C(Br)=C(N2CC2)C1=O`, 1.36.
To `CCCCCCOc1ccccc1NC(=O)OCCN1CCOCC1` belongs 4.24; to `C#CCOc1c(Cl)cc(NC=NOCCCC)cc1Cl`, 4.4; to `CCCCOC(=O)NCCn1c([N+](=O)[O-])cnc1C`, 1.22.
Regarding `Cc1n[nH]c(C(=O)NCc2ccccc2)c1[N+](=O)[O-]`, the logP was found to be 1.49.
Under `O=C(Cn1c(=O)sc2ccc(Cl)cc21)N1CC[N+]([O-])(CCO)CC1` stands 0.05; under `CN1CCN(Cc2ccc(Cl)nc2)C1=N[N+](=O)[O-]`, 0.26; under `CCCOc1ccccc1NC(=O)OCCN1CCOCC1`, 2.78.
Take `CC(C)(C)NC(=O)C1CN(C(=O)OCc2ccccc2)CCN1CC(O)CC(Cc1ccccc1)C(=O)NC1c2ccccc2CC1O` (configuration not stated): the logP stood at 4.67.
Under `COC(=O)C(C#N)=NNc1ccc(S(=O)(=O)C(F)(F)F)cc1` stands 4.22.
Under `O=C(NCO)c1c(I)c(C(=O)NCCO)c(I)c(N(CC(O)CO)C(=O)C(O)CO)c1I` (configuration not stated) stands -2.65.
To `Nc1nc2c(ncn2C2OC(CO)CC2F)c(=O)[nH]1` (configuration not stated) belongs -1.18; to `CCCC(CCC)(NC(C)=O)C(N)=O`, 0.75.
Consider `O=C(NCCO)C(F)(F)Cn1cnc([N+](=O)[O-])n1`, for which the logP is -0.77.
`CC(CO)OC(C)CO` (configuration not stated): the logP was -0.67.
Under `CN1C(C(=O)Nc2nccs2)=C(O)c2ccccc2S1(=O)=O` stands 1.64; under `CCCCNC(=O)C1(O)C(C)CC2C3CCC4=CC(=O)C=CC4(C)C3(F)C(O)CC21C` (configuration not stated), 3.1; under `COC(=O)Cc1ccc(O)c2ncccc12`, 1.59.
Under `CCC1(CCC(C)C)C(=O)NC(=O)N(C)C1=O` (configuration not stated) stands 2.45; under `CN(C)c1nc(=O)cc(-c2ccc([N+](=O)[O-])o2)s1`, 0.55.
Regarding `CCC1COC(Cn2cncn2)(c2ccc(-n3cncn3)cc2Cl)O1` (configuration not stated), the logP amounted to 1.28.
Turning to `C[C@H](O)C(=O)Nc1c(I)c(C(=O)NC(CO)CO)c(I)c(C(=O)NC(CO)CO)c1I`, the logP is -2.42.
`Cc1cccc(C)c1NC(=O)CN1CCN(CCCC(c2ccc(F)cc2)c2ccc(F)cc2)CC1`: the logP worked out at 5.6.
In turn, `CCCn1cnc2c(NC(C)=O)ncnc21` gave a logP of 0.09.
To `Clc1cc(-c2cc(Cl)c(Cl)c(Cl)c2Cl)c(Cl)c(Cl)c1Cl` belongs 8.68; to `COCCCNc1nc(NC(C)C)nc(SC)n1`, 2.82.
In the case of `COc1nc(C(Cl)(Cl)Cl)nc(C(Cl)(Cl)Cl)n1`, the logP worked out at 3.64.
Under `CNC(=NC#N)Nc1cccc(-c2csc(N=C(N)N)n2)c1` stands 1.6.
Under `O=S(=O)(NCc1ccccc1)C(F)(F)F` stands 2.91.
To `CC(O)COc1ccccc1` (configuration not stated) belongs 1.61.
In the case of `CCC(=O)C(CS(=O)(=O)c1ccccc1)c1ccccc1` (configuration not stated), the logP amounted to 1.82.
`CCCC(C)C(=O)OCC1CCC(n2cnc3c(=O)[nH]cnc32)O1` (configuration not stated) had a logP of 1.
To `Cc1cc(=O)oc2cc(OC3OC(CO)C(O)C(O)C3O)ccc12` (configuration not stated) belongs -0.66; to `O=C(CCCN1CCC(C(O)(c2ccccc2)c2ccccc2)CC1)c1ccccc1`, 4.42.
Under `CCN1C(=O)C(=O)c2ccc(Cl)cc2C1=O` stands 1.79.
To `CCCCNC(=O)c1n[nH]c(C)c1[N+](=O)[O-]` belongs 1.27; to `CCOC(=O)c1cccc2c1C(=O)C(=O)N(CC)C2=O`, 1.31.
